Source: ChEMBL document CHEMBL5625232, “Development of selective class I protein arginine methyltransferase inhibitors through fragment-based drug design approach” (Eur J Med Chem, 2023)
The source made the active and inactive calls. No cut-off for these calls is given here.

Experiments:
[1] = biological target: T1, Histone-lysine N-methyltransferase SUV39H1 (Homo sapiens) (UniProt O43463); assay: Displacement of 3H-SAM from SUV39H1 (unknown origin) using biotinylated-histone H3 peptide as substrate at 30 uM incubated for 45 mins by SPA assay relative to control
T1 sequence (whole entry): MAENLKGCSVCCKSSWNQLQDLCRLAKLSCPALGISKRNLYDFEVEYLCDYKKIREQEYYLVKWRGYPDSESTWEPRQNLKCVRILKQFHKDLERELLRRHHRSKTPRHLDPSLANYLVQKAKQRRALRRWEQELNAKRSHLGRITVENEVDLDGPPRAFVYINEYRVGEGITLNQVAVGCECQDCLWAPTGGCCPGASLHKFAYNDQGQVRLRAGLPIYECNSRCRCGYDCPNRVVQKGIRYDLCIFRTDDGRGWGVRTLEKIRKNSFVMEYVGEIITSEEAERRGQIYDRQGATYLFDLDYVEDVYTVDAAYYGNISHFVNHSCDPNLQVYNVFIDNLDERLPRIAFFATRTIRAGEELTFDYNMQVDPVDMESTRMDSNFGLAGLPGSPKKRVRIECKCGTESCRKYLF

[2] = biological target: T2, Histone-lysine N-methyltransferase SMYD3 (Homo sapiens) (UniProt Q9H7B4); assay: Displacement of 3H-SAM from SMYD3 (unknown origin) using biotinylated-MAP3K2 as substrate at 30 uM incubated for 45 mins by SPA assay relative to control
T2 sequence (whole entry): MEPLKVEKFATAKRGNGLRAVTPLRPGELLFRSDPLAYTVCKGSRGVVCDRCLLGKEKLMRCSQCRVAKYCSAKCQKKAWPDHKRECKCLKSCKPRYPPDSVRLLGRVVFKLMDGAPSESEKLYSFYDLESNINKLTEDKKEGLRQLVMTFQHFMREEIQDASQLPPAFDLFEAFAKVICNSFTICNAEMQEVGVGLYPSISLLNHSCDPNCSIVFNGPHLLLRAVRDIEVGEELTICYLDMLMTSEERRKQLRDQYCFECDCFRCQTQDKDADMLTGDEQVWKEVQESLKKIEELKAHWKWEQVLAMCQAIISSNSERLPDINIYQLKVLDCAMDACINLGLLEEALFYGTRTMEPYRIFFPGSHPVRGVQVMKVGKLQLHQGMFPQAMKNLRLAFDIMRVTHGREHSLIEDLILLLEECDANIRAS

[3] = biological target: Histone-lysine N-methyltransferase, H3 lysine-79 specific (Homo sapiens) (UniProt Q8TEK3); assay: Displacement of 3H-SAM from DOT1L (unknown origin) at 30 uM incubated for 1 hr in presence of substrate by SPA assay relative to control
Sequence of Histone-lysine N-methyltransferase, H3 lysine-79 specific (Homo sapiens) (Q8TEK3 whole entry, looked up): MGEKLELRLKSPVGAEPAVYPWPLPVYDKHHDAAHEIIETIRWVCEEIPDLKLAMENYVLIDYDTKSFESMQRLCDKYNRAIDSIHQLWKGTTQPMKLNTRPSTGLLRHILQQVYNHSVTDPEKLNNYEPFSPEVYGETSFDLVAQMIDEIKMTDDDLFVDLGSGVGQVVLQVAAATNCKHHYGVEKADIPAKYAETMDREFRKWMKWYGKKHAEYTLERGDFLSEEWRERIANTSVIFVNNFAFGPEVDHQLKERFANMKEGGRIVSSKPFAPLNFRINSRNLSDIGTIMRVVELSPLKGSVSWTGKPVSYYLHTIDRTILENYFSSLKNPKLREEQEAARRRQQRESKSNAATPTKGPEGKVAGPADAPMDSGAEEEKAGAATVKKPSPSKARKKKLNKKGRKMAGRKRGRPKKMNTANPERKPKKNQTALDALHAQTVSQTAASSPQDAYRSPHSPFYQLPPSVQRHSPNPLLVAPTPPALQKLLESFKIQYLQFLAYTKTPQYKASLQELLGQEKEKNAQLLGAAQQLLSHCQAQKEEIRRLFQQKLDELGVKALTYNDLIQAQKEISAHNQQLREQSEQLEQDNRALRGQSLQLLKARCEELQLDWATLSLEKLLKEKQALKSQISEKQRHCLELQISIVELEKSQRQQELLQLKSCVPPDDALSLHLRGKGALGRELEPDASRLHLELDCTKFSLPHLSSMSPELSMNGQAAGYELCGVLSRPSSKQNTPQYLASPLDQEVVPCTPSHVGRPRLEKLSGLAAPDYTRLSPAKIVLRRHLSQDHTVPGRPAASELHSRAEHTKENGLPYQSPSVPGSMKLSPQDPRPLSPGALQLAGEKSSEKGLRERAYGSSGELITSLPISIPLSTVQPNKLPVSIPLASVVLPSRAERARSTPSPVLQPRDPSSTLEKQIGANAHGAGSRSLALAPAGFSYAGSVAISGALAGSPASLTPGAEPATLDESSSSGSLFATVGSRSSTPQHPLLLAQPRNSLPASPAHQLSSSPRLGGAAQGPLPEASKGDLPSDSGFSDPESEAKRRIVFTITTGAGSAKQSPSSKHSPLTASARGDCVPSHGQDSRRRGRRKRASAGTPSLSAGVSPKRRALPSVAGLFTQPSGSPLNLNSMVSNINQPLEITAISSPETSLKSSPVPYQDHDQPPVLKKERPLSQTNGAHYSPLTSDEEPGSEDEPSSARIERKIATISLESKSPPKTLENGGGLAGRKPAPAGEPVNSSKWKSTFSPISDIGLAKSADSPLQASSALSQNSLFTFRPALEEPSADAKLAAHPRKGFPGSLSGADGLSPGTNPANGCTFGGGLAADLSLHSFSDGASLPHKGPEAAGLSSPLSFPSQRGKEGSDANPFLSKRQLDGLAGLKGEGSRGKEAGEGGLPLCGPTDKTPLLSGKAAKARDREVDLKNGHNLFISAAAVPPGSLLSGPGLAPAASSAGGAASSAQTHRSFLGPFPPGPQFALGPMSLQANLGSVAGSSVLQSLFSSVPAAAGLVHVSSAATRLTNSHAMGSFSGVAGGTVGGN

[4] = biological target: T3, Protein arginine N-methyltransferase 3 (Homo sapiens, UniProt O60678); assay: Displacement of 3H-SAM from human PRMT3 at 50 uM in presence of substrate by SPA assay
Target sequence in this assay (O60678 2-531 limits assumed): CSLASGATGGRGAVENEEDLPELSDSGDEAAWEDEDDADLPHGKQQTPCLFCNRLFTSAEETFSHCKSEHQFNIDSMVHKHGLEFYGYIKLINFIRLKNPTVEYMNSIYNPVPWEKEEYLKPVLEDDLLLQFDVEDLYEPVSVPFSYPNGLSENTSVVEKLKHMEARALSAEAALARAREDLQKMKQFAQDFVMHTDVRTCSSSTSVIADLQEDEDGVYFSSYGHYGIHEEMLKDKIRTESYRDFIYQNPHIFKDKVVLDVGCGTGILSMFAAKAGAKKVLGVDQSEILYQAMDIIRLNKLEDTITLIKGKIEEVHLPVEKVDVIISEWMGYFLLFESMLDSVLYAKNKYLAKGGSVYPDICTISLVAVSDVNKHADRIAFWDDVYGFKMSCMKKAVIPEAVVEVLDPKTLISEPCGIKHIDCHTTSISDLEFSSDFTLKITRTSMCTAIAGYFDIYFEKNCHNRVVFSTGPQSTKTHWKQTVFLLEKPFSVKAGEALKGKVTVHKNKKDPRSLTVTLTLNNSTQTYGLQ

[5] = biological target: T4, Histone-arginine methyltransferase CARM1 (Homo sapiens) (UniProt Q86X55); assay: Displacement of 3H-SAM from human PRMT4 at 50 uM in presence of substrate by SPA assay
T4 sequence (whole entry): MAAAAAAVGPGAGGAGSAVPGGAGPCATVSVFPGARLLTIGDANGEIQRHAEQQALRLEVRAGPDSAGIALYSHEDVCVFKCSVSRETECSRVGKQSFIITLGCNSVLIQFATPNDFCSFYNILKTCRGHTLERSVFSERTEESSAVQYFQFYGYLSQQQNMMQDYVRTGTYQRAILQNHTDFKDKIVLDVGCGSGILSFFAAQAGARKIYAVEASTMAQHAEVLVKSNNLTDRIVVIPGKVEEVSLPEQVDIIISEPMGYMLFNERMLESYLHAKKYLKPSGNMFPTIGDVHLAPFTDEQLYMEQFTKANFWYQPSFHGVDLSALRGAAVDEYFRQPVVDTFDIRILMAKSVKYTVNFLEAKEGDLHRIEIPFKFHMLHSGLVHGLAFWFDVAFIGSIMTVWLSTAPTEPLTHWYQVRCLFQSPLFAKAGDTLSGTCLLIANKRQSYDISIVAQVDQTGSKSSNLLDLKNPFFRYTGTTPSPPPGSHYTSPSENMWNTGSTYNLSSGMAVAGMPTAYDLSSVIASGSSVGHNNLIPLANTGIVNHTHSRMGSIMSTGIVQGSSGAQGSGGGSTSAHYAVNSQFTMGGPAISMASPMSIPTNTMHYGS

[6] = biological target: Protein arginine N-methyltransferase 5 (Homo sapiens) (UniProt O14744); assay: Displacement of 3H-SAM from human PRMT5 at 50 uM in presence of substrate by SPA assay
Sequence of Protein arginine N-methyltransferase 5 (Homo sapiens) (O14744 whole entry): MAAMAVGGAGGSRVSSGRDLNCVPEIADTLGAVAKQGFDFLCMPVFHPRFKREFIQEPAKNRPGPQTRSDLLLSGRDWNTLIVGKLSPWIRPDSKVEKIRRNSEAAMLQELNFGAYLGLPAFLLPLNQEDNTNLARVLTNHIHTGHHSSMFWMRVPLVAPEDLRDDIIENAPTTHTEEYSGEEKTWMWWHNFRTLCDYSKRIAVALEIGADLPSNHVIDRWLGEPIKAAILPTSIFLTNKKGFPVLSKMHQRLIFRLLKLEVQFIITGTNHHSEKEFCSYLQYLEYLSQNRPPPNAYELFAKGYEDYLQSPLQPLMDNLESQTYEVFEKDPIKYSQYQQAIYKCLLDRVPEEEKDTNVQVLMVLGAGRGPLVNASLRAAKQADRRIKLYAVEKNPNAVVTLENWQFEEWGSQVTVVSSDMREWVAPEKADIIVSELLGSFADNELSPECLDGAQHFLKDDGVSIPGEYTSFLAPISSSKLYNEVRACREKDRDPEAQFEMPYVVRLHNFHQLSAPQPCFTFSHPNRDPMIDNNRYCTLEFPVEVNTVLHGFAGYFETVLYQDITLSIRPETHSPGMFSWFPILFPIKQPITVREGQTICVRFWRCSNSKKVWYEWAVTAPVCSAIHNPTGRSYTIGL

[7] = biological target: T5, Protein arginine N-methyltransferase 6 (Homo sapiens, UniProt Q96LA8); assay: Displacement of 3H-SAM from human PRMT6 at 50 uM in presence of substrate by SPA assay
Target sequence in this assay (Q96LA8 whole entry, looked up): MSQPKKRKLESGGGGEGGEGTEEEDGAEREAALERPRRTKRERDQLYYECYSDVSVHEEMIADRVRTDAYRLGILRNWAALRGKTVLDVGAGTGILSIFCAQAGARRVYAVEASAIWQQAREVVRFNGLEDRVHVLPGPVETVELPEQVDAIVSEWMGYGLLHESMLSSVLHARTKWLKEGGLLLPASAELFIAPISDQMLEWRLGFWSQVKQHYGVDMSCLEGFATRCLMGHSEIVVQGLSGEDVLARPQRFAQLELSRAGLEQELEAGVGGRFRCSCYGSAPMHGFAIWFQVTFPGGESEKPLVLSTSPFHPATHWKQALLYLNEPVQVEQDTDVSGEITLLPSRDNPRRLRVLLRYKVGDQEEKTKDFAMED

[8] = biological target: T6, Protein arginine N-methyltransferase 7 (Homo sapiens) (UniProt Q9NVM4); assay: Displacement of 3H-SAM from human PRMT7 at 50 uM in presence of substrate by SPA assay
T6 sequence (whole entry): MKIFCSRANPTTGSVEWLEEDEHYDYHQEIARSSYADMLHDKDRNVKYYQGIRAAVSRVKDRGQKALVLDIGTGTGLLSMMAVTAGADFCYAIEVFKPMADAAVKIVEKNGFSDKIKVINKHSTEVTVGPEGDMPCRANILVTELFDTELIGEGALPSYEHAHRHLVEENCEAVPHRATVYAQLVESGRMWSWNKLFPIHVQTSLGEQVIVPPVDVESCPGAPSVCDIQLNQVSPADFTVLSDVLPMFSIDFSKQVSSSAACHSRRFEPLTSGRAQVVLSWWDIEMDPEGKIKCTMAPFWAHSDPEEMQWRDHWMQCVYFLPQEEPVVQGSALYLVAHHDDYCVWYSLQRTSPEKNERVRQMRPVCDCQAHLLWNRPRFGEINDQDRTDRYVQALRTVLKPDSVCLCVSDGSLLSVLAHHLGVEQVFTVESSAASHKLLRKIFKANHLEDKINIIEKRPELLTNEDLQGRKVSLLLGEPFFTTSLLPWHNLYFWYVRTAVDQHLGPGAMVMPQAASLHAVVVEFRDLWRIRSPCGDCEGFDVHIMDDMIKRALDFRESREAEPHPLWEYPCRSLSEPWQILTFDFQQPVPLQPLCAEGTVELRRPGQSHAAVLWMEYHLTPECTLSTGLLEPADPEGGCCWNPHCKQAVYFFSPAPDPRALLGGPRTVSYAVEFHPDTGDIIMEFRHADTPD

[9] = biological target: T7, Protein arginine N-methyltransferase 8 (Homo sapiens, UniProt Q9NR22); assay: Displacement of 3H-SAM from human PRMT8 at 50 uM in presence of substrate by SPA assay
Target sequence in this assay (Q9NR22 2-394 limits assumed): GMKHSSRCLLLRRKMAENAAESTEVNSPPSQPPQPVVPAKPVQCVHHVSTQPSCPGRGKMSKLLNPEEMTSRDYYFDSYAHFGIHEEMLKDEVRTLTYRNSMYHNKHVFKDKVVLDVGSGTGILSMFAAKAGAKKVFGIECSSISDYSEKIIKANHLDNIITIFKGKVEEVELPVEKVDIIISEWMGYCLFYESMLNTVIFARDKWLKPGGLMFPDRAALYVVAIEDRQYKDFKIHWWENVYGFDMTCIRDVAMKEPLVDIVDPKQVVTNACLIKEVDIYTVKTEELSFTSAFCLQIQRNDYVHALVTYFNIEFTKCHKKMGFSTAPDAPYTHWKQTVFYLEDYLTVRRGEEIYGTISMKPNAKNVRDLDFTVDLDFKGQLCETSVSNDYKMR

[10] = biological target: T8, Protein arginine N-methyltransferase 9 (Homo sapiens) (UniProt Q6P2P2); assay: Displacement of 3H-SAM from human PRMT9 at 50 uM in presence of substrate by SPA assay
T8 sequence (whole entry): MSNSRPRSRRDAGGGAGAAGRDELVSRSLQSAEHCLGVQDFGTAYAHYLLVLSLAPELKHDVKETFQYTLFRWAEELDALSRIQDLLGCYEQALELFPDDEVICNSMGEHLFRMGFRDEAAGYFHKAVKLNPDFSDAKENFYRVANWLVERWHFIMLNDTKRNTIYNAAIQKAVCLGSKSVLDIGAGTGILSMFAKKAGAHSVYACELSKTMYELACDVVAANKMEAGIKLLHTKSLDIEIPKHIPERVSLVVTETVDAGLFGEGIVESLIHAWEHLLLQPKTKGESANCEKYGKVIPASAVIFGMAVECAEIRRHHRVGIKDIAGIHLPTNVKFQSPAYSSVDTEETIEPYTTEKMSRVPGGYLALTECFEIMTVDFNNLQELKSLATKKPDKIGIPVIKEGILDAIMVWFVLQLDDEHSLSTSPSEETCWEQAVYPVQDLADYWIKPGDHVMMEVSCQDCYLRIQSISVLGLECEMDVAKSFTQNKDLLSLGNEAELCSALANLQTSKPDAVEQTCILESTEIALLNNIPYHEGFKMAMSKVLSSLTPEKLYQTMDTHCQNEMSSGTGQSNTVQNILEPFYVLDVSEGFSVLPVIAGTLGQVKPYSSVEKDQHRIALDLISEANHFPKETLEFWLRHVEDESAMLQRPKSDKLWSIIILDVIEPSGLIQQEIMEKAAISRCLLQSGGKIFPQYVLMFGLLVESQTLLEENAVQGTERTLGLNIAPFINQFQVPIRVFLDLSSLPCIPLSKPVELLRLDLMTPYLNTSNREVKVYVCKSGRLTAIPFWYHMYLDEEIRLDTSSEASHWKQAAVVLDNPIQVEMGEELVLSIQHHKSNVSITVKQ

[11] = biological target: T3, Protein arginine N-methyltransferase 3; assay: Inhibition of PRMT3 (unknown origin)
Target sequence in this assay (O60678 whole entry): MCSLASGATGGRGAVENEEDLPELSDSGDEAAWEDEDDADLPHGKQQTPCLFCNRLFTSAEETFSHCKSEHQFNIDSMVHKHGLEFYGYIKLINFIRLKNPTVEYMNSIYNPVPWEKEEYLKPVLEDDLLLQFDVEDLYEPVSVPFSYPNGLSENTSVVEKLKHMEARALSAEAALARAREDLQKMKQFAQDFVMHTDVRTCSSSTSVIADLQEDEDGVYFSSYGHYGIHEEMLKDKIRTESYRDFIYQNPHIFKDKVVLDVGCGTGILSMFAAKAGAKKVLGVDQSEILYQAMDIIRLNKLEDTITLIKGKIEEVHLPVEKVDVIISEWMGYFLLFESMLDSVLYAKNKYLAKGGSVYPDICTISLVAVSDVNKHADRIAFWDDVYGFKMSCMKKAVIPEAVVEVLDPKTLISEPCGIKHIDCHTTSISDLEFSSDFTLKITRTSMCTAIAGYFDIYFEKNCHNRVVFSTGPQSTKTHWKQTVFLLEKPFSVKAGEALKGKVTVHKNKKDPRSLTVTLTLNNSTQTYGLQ

[12] = biological target: T9, Histone-arginine methyltransferase CARM1 (Homo sapiens, UniProt Q86X55); assay: Inhibition of PRMT4 (unknown origin)
T9 sequence (Q86X55 whole entry): T4 sequence (whole entry)

[13] = biological target: T5, Protein arginine N-methyltransferase 6; assay: Inhibition of PRMT6 (unknown origin)
Target sequence in this assay (Q96LA8 whole entry): as the sequence (Q96LA8 whole entry, looked up) above

[14] = biological target: T7, Protein arginine N-methyltransferase 8; assay: Inhibition of PRMT8 (unknown origin)
Target sequence in this assay (Q9NR22 whole entry): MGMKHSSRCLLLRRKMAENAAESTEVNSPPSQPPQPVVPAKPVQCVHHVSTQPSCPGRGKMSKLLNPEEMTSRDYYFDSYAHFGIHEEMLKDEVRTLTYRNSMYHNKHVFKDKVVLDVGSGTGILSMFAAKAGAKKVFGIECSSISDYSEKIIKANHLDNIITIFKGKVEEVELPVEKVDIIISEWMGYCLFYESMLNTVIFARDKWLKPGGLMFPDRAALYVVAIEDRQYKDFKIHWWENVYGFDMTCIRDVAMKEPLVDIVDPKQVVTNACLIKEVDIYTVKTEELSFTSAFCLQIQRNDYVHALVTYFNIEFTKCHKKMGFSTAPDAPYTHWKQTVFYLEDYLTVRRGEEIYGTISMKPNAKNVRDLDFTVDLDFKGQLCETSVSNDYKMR

[15] = biological target: Protein arginine N-methyltransferase 1 (Homo sapiens, UniProt Q99873); assay: Inhibition of PRMT1 (unknown origin)
Sequence of Protein arginine N-methyltransferase 1 (Q99873 whole entry): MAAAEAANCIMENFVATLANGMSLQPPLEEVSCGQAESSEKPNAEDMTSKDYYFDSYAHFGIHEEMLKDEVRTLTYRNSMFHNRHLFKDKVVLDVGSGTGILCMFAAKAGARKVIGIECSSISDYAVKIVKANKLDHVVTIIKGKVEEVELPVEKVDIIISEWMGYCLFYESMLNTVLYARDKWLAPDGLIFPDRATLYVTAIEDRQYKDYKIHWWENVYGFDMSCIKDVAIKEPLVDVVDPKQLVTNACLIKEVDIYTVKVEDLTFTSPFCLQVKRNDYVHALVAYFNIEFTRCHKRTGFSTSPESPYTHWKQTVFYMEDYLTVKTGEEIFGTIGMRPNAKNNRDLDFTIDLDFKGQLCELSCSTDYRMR

Row | Structure (SMILES) | inhibition [1] [%] | inhibition [2] [%] | inhibition [3] [%] | inhibition [4] | inhibition [5] | inhibition [6] | inhibition [7] | inhibition [8] | inhibition [9] | inhibition [10] | IC50 [11] [nM] | IC50 [12] [nM] | IC50 [13] [nM] | IC50 [14] [nM] | IC50 [15] [nM]
1 | CN(C)CCCNC(=O)c1ccc2c(Nc3ccc(CN)cc3)ncnc2c1 | < 25 | < 25 | 0 | Active | Active | Active | Active | Active | Active | Active | – | – | – | – | –
2 | CC(C)Oc1ccc(-c2c[nH]cc2CNCCN)cc1 | – | – | – | – | – | – | – | – | – | – | 119 | 83 | 4 | 5 | 30
